For the data set, the system named is CFBE cells. Description: Comet assay for DNA damage. It is filed as cell-based, human. To be noted: versus untreated cells. As for the experimental part:
FIG. 6 is a bar graph showing the results of a comet assay for DNA damage. TriTek Comet Score FreeWare was used to calculate comet tail moment for each treatment condition. Plots show the average comet tail moment which indicates the extent of DNA damage. Error bars represent the SEM; ****P<0.0001 by unpaired t-test.
50,000 CFBE cells were plated per well in 6-well plates. The following day, the cells were treated with the indicated PNA containing NPs, treated with lipfectamine alone, or transfected with CRISPR-based editing reagents. The next day, cells were collected and prepared using the Trevigen Comet Assay kit per the manufacturer's protocol (Trevigen, Gaithersburg, Md.). Briefly, cells were suspended in agarose and added to comet slides. After the agarose solidified, the slides were incubated for 1 hour in lysis solution, placed in electrophoresis solution for 30 min, then run at 21 V for 1 hour at 4° C. The slides were then placed in acetate solution for 30 min, then incubated in 70% ethanol solution for 30 min. The comet slides were then dried, stained with SYBR Green for 30 min and then visualized using an EVOS microscope. TriTek Comet Score freeware was used to analyze the images. The average comet tail moment was plotted for each condition. Error bars represent the SEM; ****P<0.0001 by unpaired t-test. […]

For “H-KKK-TJTJJTTT-OOO-TTTCCTCTATGGGTAAG-KKK-NH2 [γhCF PNA-h] (TNTNNTTTTTTCCTCTATGGGTAAG; listed as DNA, chemistry not fully specified) [tail clamp PNA targeting human CFTR gene with MPγ monomers in Hoogsteen domain]”, the comet tail moment result was “no significant change in comet tail moment”.

Source of the values: US20220243211A1, “PEPTIDE NUCLEIC ACID COMPOSITIONS WITH MODIFIED HOOGSTEEN BINDING SEGMENTS AND METHODS OF USE THEREOF” (Yale University, priority 2019, published 2022).
